A word on the pIC50: it is −log10 of the IC50, conventionally taken in molar units. A higher pIC50 goes with a low IC50.

Series [1] in a line: Log D determination by high pressure liquid chromatography. In kind it is physicochemical. The conditions noted are these: hplc ods, mobile phase MeOH:H2O, pH 7.4, read-out: (Log D) (Lipophilicity). The procedure: The procedure used to determine the log D's listed on Table VI was as follows. A 20 »l sample was injected into a Shandon Hypersil ODS, 5» (100 mm x 4.6 mm ID) column and was eluted using a mobile phase of […] MeOH:H₂O (The aqueous portion was .01 M in KH₂PO₄ and adjusted to pH 7.4 with KOH after mixing the MeOH), at a flow rate of 2 ml per minute. Eluting peaks were detected by UV absorbance at […]. All samples were made up at 0.1 mg/ml. (Retentions were identical at 0.01 mg/ml.)
The data was analyzed by determining the regression line corresponding to the log k′ vs. literature log P of the reference standards.
The reference standards and their literature log P's included NaNO₂, 0.0; acetanalide, 1.16; acetophenone, 1.66; anisole, 2.08; chlorobenzene, 2.84; benzophenone, 3.18; anthracene, 4.45; and pentachlorobenzene, 5.12.

The subject of series [2] is cynomolgus monkeys. Kind of series: CNS activity / oral toxicity in cynomolgus monkeys. The conditions noted are these: cynomolgus monkey, in vivo. The procedure:
Additional monkeys tolerated repeated doses of 45 mg/kg or 30 mg/kg and one animal tolerated an escalating dose schedule of 30-90-120 mg/kg.
The two monkeys administered 400 mg/kg were repeatedly administered this dose for 7 consecutive days; each animal experienced emesis within 1 to 5 hours of dosing after the 1st, 3rd and 4th doses, whereas only the female experienced emesis after the 5th, 6th and 7th doses. A complete necropsy, serum clinical chemistry, hematology and histological examination was completed on both monkeys.

Series [3] is described as follows: Cytochrome P-450 inhibition (ethoxycoumarin-O-deethylase activity, phenobarbital-induced microsomes). The conditions noted are these: rat.
In series [4] the test system is cynomolgus monkeys. Kind of series: CNS activity / oral toxicity in cynomolgus monkeys. In kind it is in vivo.
The subject of series [5] is arachidonic acid-induced edema in mice. Put plainly: Arachidonic acid-induced mouse ear inflammation (ear swelling). In kind it is in vivo, male Balb/c mice. The conditions noted are these: mouse, po; read-out: AAEE(MOUSE ED50 mg/kg (po)). The procedure:
In the tests used to determine activity as 5-lipoxygenase pathway inhibitors, male Balb/c mice (20-28 g), were used. All mice were obtained from Charles River Breeding Laboratories, Kingston, N.Y. Within a single experiment, mice were age matched.
Reagents were employed as follows: Compounds of Formula (I) were each used as the free base. The compounds were homogenized in 0.5% tragacanth. Compounds were administered by […] at the indicated dose in a final volume of 10 ml/kg.
Arachidonic acid in acetone (2 mg/20 »l) was applied to the inner surface of the left ear. The thickness of both ears was then measured with a dial micrometer one hour after treatment, and the data were expressed as the change in thickness (10⁻³ cm) between treated and untreated ears.
Test compounds were given orally in acid/saline at the times indicated in the text prior to the topical application of arachidonic acid.
Dermatol., 82, 367-371 (1984)].

The mark [6] stands for this setting: cynomolgus monkey, in vivo, po, 60 mg/kg.

SMILES strings stand for the structures. pIC50: −log10 of the molar value.

With `[O-][S+]1CCn2c1nc(-c1ccc(F)cc1)c2-c1ccncc1` (stereo not drawn) [B, 5-(4-pyridyl)-6-(4-fluorophenyl)-2,3-dihydroimidazo [2,1-b]thiazole oxide, reference compound], the chromatographic logD in series [1] came to 1.2. Further, in the series with cynomolgus monkeys [2], the “CNS toxicity / adverse CNS effects (comparative statement)” value is “reduced CNS toxicity”. Besides, the negative logarithm of the IC50 (pIC50) in series [3] (liver microsomes) was 5.30.
As to `Fc1ccc(-c2nc3n(c2-c2ccncc2)CCS3)cc1` [Compound A, 5-(4-pyridyl)-6-(4-fluorophenyl)-2,3-dihydroimidazo[2,1-b]thiazole], the chromatographic logD in series [1] stood at 2.19. Also, the “Adverse CNS activity” value in the series with cynomolgus monkeys [2] is “+++”. For the same compound, the pIC50 in series [3] (liver microsomes) is 6.22; in series [3] (microsomes) it was 6.05. The “time of death after dosing” value with cynomolgus monkeys [4] (cynomolgus monkey, in vivo, 90 mg/kg) was 1 to 5 h. For the same compound, the clinical effects result in the series on cynomolgus monkeys [4] (oral 90 mg/kg/day, two consecutive days, 1 female, 1 male, 90 mg/kg/day) was “caused convulsions and death”. For the same compound, the ED50 in series [5] is 27 mg/kg.
Turning to `COc1ccc(-c2nc3n(c2-c2ccncc2)CCC3)cc1` [Compound C, 2-(4-methoxyphenyl)-3-(4-pyridyl)-6,7-dihydro-[5H]-pyrrolo[1,2-a]imidazole], the chromatographic logD in series [1] came to 2.14. The “Adverse CNS activity” value with cynomolgus monkeys [2] is “+++”. In addition, the pIC50 in series [3] (liver microsomes) is 4.67. Further, the clinical effects entry in the series with cynomolgus monkeys [4] (setting [6]) was “sedation, loss of consciousness and death of one (male)”; with cynomolgus monkeys [4] (cynomolgus monkey, in vivo, po, 90 mg/kg), “death of both animals”; in the series on cynomolgus monkeys [4] (single oral dose of 90 mg/kg, 1 female, 1 male, 90 mg/kg), “caused convulsions and death”. In addition, the “time of death after dosing” value in the series on cynomolgus monkeys [4] (setting [6]) is not above 1 h. For the same compound, the ED50 in series [5] came to 28 mg/kg.
